Results published in patent publication US11642309B2, “Aqueous compositions comprising bilastine and mometasone” (FAES FARMA, S.A., priority 2017, dated 2023).
≈ marks a conversion by molar mass, not a printed value. Each block holds one compound with its values, some of them ahead of it.

Experiments:
Assay type in all cases: physicochemical
[1] = Solubility of bilastine and mometasone furoate monohydrate in formulations with HPBCD 12.5 to 100 mg/mL at pH 4.3, 4.6, 4.9 (Example 3); conditions: for solubility: thermodynamic from solid
Method: (§1) HPLC measurements were conducted using a HPLC-HCLASS Chromatographic System with PDA or UV-VIS detector equipped with a Xbridge Shield RP18 3.5 μm […] Column. Mobile phases were ammonium bicarbonate (10 mM pH 9, FLUKA), acetonitrile (FISCHER) and methanol ([…]). Samples were submitted to Acrodisc 32 mm Sryinge Filters with 1.2 μm Supor Membrane, Batch: 18-1077 (PALL).
Six different formulations (with mometasone furoate monohydrate and the rest of excipients as defined in example 2) were prepared (see table below). The six formulations had amounts of HPBCD from 12.5 to 100 mg/mL. Then, in each of them an excessive amount of bilastine was added and the maximum solubility was tested. Furthermore, the percentage of the mometasone furoate dissolved was also tested. All the measurements were conducted at time 0.

[2] = Solubility of bilastine with α-cyclodextrin (FIG. 2); conditions: aqueous composition with α-cyclodextrin, aqueous with cosolvent or surfactant or cyclodextrin; 5 wt. % α-cyclodextrine instead of HPBCD, pH 4.5, FIG. 2
[3] = Solubility of bilastine and mometasone furoate monohydrate in Kolliphor RH40 formulations (Example 4)
Method: To this end, aqueous formulations of Kolliphor RH40 at concentrations 0, 5, 15, 25 and 50 mg/mL and at pH values of 3.7, 4.0, 4.3 and 4.6 were prepared.
Additionally, 0.5 mg/mL of mometasone furoate monohydrate was added to each formulation. The influence of Kolliphor RH40 in bilastine solubility is represented in FIG. 3 in graphs A and B therein. It is shown that, at pH values above 4.3, Kolliphor RH40 at a concentration of 50 mg/mL is insufficient in solubilizing 8 mg/mL of Bilastine (FIG. 3 in graph A therein. In addition, at the concentration of 50 mg/mL and pH of 4.3, Kolliphor RH40 solubilizes more than 10% of the added mometasone furoate monohydrate (FIG. 3 in graph B therein.

[4] = Solubility of bilastine in water; conditions: solubility depends on the pH
[5] = Stability of formulation with Kolliphor RH40 in stability chambers (Example 5); conditions: Kolliphor RH40 50 mg/mL formulation
Method: as §1
In the formulation of the present example, sorbitan monooleate acts as an antifoam agent. A batch manufactured according to the table above was prepared, packaged and placed in stability chambers wherein the conditions were 25° C./40% RH and 40° C./25% RH for the duration of 3 months.

[6] = Stability of formulas with HPBCD in stability chambers (Example 6); conditions: HPBCD 25 mg/mL
Method: as §1
The three formulas (bilastine at a concentration of 2, 4 and 8 mg/mL) were placed in stability chambers wherein the conditions were 25° C./40% RH and 40° C./25% RH for the duration of 6 or 12 months.

[7] = Mometasone impurities under forced stability conditions, increasing HPBCD (Example 7); conditions: pH 4.6, 50° C., 3 months
Method: The percentage of Mometasone was calculated-using the following formula: […]
The percentage of Mometasone degradation products was calculated using the following formula: […]
To evaluate the influence that the cyclodextrin HPBCD had on the impurities of mometasone, formulations similar to the one described in example 1 (see table therein) were studied at pH 4.6 for increasing cyclodextrin concentrations of from 25 to 95 mg/mL. The formulations were submitted to forced stability conditions at 50° C. for a 3-month period. The results were obtained from HPLC measurements.

solubility ([1]; aqueous with cosolvent or surfactant or cyclodextrin): ≥ 8000 µg/mL
solubility ([1]; pH 4.6, aqueous with cosolvent or surfactant or cyclodextrin): ~10000 µg/mL (≈ 21.6 mM)
solubility [2]: < 1000 µg/mL
solubility ([3]; aqueous with cosolvent or surfactant or cyclodextrin, thermodynamic from solid): < 8000 µg/mL
solubility in water [4]: slightly soluble
SMILES: CCOCCn1c(C2CCN(CCc3ccc(C(C)(C)C(=O)O)cc3)CC2)nc2ccccc21 [Bilastine, 2-[4-(2-{4-[1-(2-ethoxyethyl)-1H-benzimidazol-2-yl]-1-piperidinyl}ethyl)phenyl]-2-methylpropanoic acid]

solubility of mometasone furoate ([1]; HPBCD 75 mg/ml (7.5 wt. %), FIG. 1 graph B): around 4 mg/ml
added mometasone furoate monohydrate solubilized ([3]; Kolliphor RH40 50 mg/mL, pH 4.3, 0.5 mg/mL added, FIG. 3 graph B): more than 10%
Total degradation products % w/w ([5]; 25° C./40% RH, 3 months): 0.31% w/w
Total degradation products % w/w ([5]; 40° C./25% RH, 3 months): 0.33% w/w
Total degradation products % w/w ([5]; T0): 0.15% w/w
Total degradation products % w/w ([6]; formula Bilastine 2 mg/mL, 25° C. 40% RH 9 months): 0.05% w/w
Total degradation products % w/w ([6]; formula Bilastine 2 mg/mL, 25° C. 40% RH 12 months): 0.05% w/w
Total degradation products % w/w ([6]; formula Bilastine 2 mg/mL, 40° C. 25% RH 3 months): 0.15% w/w
Total degradation products % w/w ([6]; formula Bilastine 2 mg/mL, 40° C. 25% RH 6 months): 0.20% w/w
Total degradation products % w/w ([6]; formula Bilastine 2 mg/mL, T0): 0.05% w/w
Total degradation products % w/w ([6]; formula Bilastine 4 mg/mL, 25° C. 40% RH 9 months): 0.05% w/w
Total degradation products % w/w ([6]; formula Bilastine 4 mg/mL, 25° C. 40% RH 12 months): 0.05% w/w
Total degradation products % w/w ([6]; formula Bilastine 4 mg/mL, 40° C. 25% RH 3 months): 0.14% w/w
Total degradation products % w/w ([6]; formula Bilastine 4 mg/mL, 40° C. 25% RH 6 months): 0.18% w/w
Total degradation products % w/w ([6]; formula Bilastine 4 mg/mL, T0): 0.05% w/w
Total degradation products % w/w ([6]; formula Bilastine 8 mg/mL, 25° C. 40% RH 9 months): 0.05% w/w
Total degradation products % w/w ([6]; formula Bilastine 8 mg/mL, 25° C. 40% RH 12 months): 0.05% w/w
Total degradation products % w/w ([6]; formula Bilastine 8 mg/mL, 40° C. 25% RH 3 months): 0.14% w/w
Total degradation products % w/w ([6]; formula Bilastine 8 mg/mL, 40° C. 25% RH 6 months): 0.17% w/w
Total degradation products % w/w ([6]; formula Bilastine 8 mg/mL, T0): 0.05% w/w
Dissolved mometasone (%) ([7]; HPBCD 25 mg/mL): 0.7%
Mometasone impurities (%) ([7]; HPBCD 25 mg/mL): 0.2%
Dissolved mometasone (%) ([7]; HPBCD 50 mg/mL): 3.0%
Mometasone impurities (%) ([7]; HPBCD 50 mg/mL): 0.7%
Dissolved mometasone (%) ([7]; HPBCD 65 mg/mL): 5.2%
Mometasone impurities (%) ([7]; HPBCD 65 mg/mL): 1.0%
Dissolved mometasone (%) ([7]; HPBCD 85 mg/mL): 7.2%
Mometasone impurities (%) ([7]; HPBCD 85 mg/mL): 1.3%
Dissolved mometasone (%) ([7]; HPBCD 95 mg/mL): 10.5%
Mometasone impurities (%) ([7]; HPBCD 95 mg/mL): 1.9%
SMILES: C[C@@H]1C[C@H]2[C@@H]3CCC4=CC(=O)C=C[C@]4(C)[C@@]3(Cl)[C@@H](O)C[C@]2(C)[C@@]1(OC(=O)c1ccco1)C(=O)CCl.O [Mometasone Furoate monohydrate, Mometasone furoate monohydrate]
